Patent US11945792B2, “Crystalline forms of 6-(1-acryloylpiperidin-4-yl)-2-(4-phenoxyphenyl)nicotinamide” (BEIJING INNOCARE PHARMA TECH CO., LTD., priority 2018, dated 2024)
Converted amounts (≈) assume the structure as drawn. “Also recorded” adds a separate entry of the source.

Tests used:
Format in all cases: physicochemical
[1] = Interconversion of crystal forms via heating and slurry competition experiments; conditions: for form after slurry competition: slurry in various solvent systems
Source text: Relationships among Type A-F crystal forms were investigated via heating and slurry competition experiments.

[2] = Equilibrium solubility in water at room temperature for 24 hours; conditions: for Form Change: residual solids by XRPD after 24 hours in water at room temperature; for pH: solubility test in water, 24 hours; for pH / Solubility: room temperature; for Solubility: water, 24 hours equilibrium
Description: 10 mg of Type A, B, D, and F samples each was added into a 1.5-mL glass vial, and 1.0 mL of water was then added. The mixture was rolled at 25 rpm at room temperature for 24 hours. The suspension was centrifuged and filtered to isolate the supernatant for HPLC concentration and purity testing and the residual solids were characterized by XRPD.

[3] = Solid-state stability assessment on storage (XRPD and HPLC purity)
Description: Approximate 10 mg of Type A sample was added into each 1.5-mL glass vial and stored at 80° C. (closed) for 1 day, 25° C./60% RH and 40° C./75% RH (open) for 1 week, then tested by XRPD and HPLC purity. Approximate 4 mg of Type B sample was added into each 1.5-mL glass vial and stored at 80° C. (closed) for 1 day, 25° C./60% RH and 40° C./75% RH (open) for 1 week, then tested by XRPD and HPLC purity. Approximate 4 mg of Type D sample was added into each 1.5-mL glass vial and stored at 25° C./60% RH and 40° C./75% RH (open) for 1 week, then tested by XRPD and HPLC purity. Approximate 7 mg of Type F sample was added into each 1.5-mL glass vial and stored at 80° C. (closed) for 1 day, 25° C./60% RH and 40° C./75% RH (open) for 1 week, then tested by XRPD and HPLC purity.

[4] = Hygroscopicity assessment by dynamic vapor sorption (DVS); conditions: for water uptake / hygroscopicity class: 25° C., 80% RH; for hygroscopicity class: Chinese Pharmacopeia 2010 definition; for form change after DVS test: XRPD before and after DVS test
Description: XRPD studies was performed using a Panalytical Empyrean X-ray powder diffractometer. The parameters of the X-ray powder diffraction of the present disclosure are as follows: • X-ray Reflection: Cu, Kα • Kα1 (Å): 1.540598; Kα2 (Å): 1.544426 • Kα2/Kα1 intensity ratio: 0.50 • Voltage: 45 (kV) • Current: 40 (mA) • Scanning range: from 3.0 degree to 40.0 degree • DSC data in the present disclosure were acquired by a TA Q2000. The parameters of the DSC method of the present disclosure were as follows: • Heating rate: 10° C./min • Purge gas: nitrogen • TGA data in the present disclosure are acquired by a TA Q5000. The parameters of the TGA method of the present disclosure were as follow: • Heating rate: 10° C./min • Purge gas: nitrogen • Dynamic vapor sorption (DVS) data in the present disclosure were acquired by a SMS (Surface Measurement Systems) DVS Intrinsic. The parameters of the dynamic vapor sorption (DVS) method of the present disclosure were as follows: • Temperature: 25° C. • Gas and flow rate: nitrogen, 200 mL/min • dm/dt: 0.002%/min • RH range: 0% RH-95% RH Approximate 10 mg of Type B sample in the present disclosure was assessed by hygroscopicity using a dynamic vapor sorption (DVS) instrument, and tested by XRPD before and after DVS test.

[5] = Solid-state stability assessment on storage (XRPD and HPLC purity); conditions: 92.5% RH for about 17 days
[6] = 25° C./60% RH and 40° C./75% RH (open) 1 week
[7] = 80° C. (closed) 1 day and 25° C./60% RH, 40° C./75% RH (open) 1 week
[8] = ACN, EtOH, MeOH/H2O (1:1, v/v) and H2O from RT to 50/70° C.

Row | SMILES | Form Change [2] | pH [2] | Purity/initial purity ([3]; 25° C./60% RH (open)/1 week) [%] | stability of the form after storage [3, 6] | Purity/initial purity ([3]; 40° C./75% RH (open)/1 week) [%] | change in purity after storage [3, 7] | stability of the form after storage [3, 7] | Purity/initial purity ([3]; 80° C. (closed)/1 day) [%] | water uptake ([4]; DVS) [%] | hygroscopicity class ([4]; DVS) | form change after DVS test [4] | Solubility [2] [µg/mL] | form after slurry [1, 8] | form after slurry competition [1] | further results
1 | C=CC(=O)N1CCC(c2ccc(C(N)=O)c(-c3ccc(Oc4ccccc4)cc3)n2)CC1 [Type C, 6-(1-acryloylpiperidin-4-yl)-2-(4-phenoxyphenyl)nicotinamide] | – | – | – | – | – | – | – | – | – | – | – | – | – | – | form after slurry ([1]; H2O at 50° C. for about 21 days): convert to anhydrate Type B
2 | C=CC(=O)N1CCC(c2ccc(C(N)=O)c(-c3ccc(Oc4ccccc4)cc3)n2)CC1 [Type F, 6-(1-acryloylpiperidin-4-yl)-2-(4-phenoxyphenyl)nicotinamide] | No | 6.9 | 100.0 | relatively good physical and chemical stability | 100.0 | no decrease in purity | did not change; also recorded: stable | 100.0 | 1.2 | slightly hygroscopic | did not change; also recorded: no form change | – | – | – | relative thermodynamic stability ([1]; between RT and 50/70° C.): thermodynamically more stable form than Type A/B/D; also recorded: more stable anhydrous form among Type A/B/D/F
3 | C=CC(=O)N1CCC(c2ccc(C(N)=O)c(-c3ccc(Oc4ccccc4)cc3)n2)CC1 [Type B, 6-(1-acryloylpiperidin-4-yl)-2-(4-phenoxyphenyl)nicotinamide] | No | 7.7 | 99.5 | – | 99.7 | no decrease in purity | did not change; also recorded: stable | 99.7 | 0.5 | slightly hygroscopic | did not change; also recorded: no form change | 6 (≈ 14 µM) | converted to Type F | converted into anhydrate Type F | –
4 | C=CC(=O)N1CCC(c2ccc(C(N)=O)c(-c3ccc(Oc4ccccc4)cc3)n2)CC1 [Type D, 6-(1-acryloylpiperidin-4-yl)-2-(4-phenoxyphenyl)nicotinamide] | No | 8.0 | 99.9 | did not change; also recorded: stable | 99.9 | – | – | – | – | – | – | 18 (≈ 42.1 µM) | – | converted into anhydrate Type F | change in purity after storage [3, 6]: no significant decrease in purity; Final form ([3]; 80° C. (closed)/1 day, XRPD): converted to a mixture of Type B and D; also recorded: converted to the mixture of Type B and D; DVS finding ([4]; DVS): relative stable hydrate; form after slurry ([1]; MeOH/H2O (aw~0.5) and EtOH/H2O (aw=0~1) at RT): converted to anhydrate Type F; form after dehydration ([1]; dehydration at elevated temperature): converted to anhydrate Type E
5 | C=CC(=O)N1CCC(c2ccc(C(N)=O)c(-c3ccc(Oc4ccccc4)cc3)n2)CC1 [Type A, 6-(1-acryloylpiperidin-4-yl)-2-(4-phenoxyphenyl)nicotinamide] | Yes, to Type B | 7.4 | 100.0 | relatively good physical and chemical stability | 100.1 | no decrease in purity | did not change; also recorded: stable | 100.0 | – | hygroscopic | – | – | converted to Type F | converted into anhydrate Type F | crystallinity after storage [5]: decreased
